Values quoted from earlier work, collected in patent US11759493B2, “Composition for the treatment of constipation” (NEILOS S.R.L., priority 2017, dated 2023).

What was measured:
[1] = 20 and 40 g per day, both study groups
[2] = 10 g, versus placebo, healthy individuals
[3] = patients affected by constipation, meta-analysis

## OC[C@H]1O[C@@H](O[C@@H]2[C@@H](CO)OC(O)(CO)[C@H]2O)[C@H](O)[C@@H](O)[C@H]1O (mixture of isomers) [lactulose]
[1]
  frequency, volume and weight of feces: significant increase
[2]
  transit in the small intestine: accelerating effect

## OC[C@@H](O)[C@@H](O[C@@H]1O[C@H](CO)[C@H](O)[C@H](O)[C@H]1O)[C@H](O)[C@@H](O)CO [lactitol, 4-O-β-D-galactopyranosyl-D-glucitol]
20 g of active ingredient
  percentage of people involved in the studies affected by diarrhea: 5-20%
Dosage of 10 g per day
  diarrhea: absence of diarrhea
[3]
  evacuation frequency and feces consistency: increase the evacuation frequency and the feces consistency
